Target: T1, Cdc7 (BEV coexpressed huCDC7/DBF4) (Homo sapiens, UniProt O00311)
T1 construct: made in house; host or cells: BEV (baculovirus expression vector) co-expression; insect cells are implied but no cell line is named
Experiment: Cdc7 enzyme inhibition assay ([33P]ATP, biotinylated peptide substrate, FlashPlate)
Assay type: biochemical
Settings: Table 3; enzyme inhibition data (Ki)
Procedure: Cdc7 (BEV coexpressed huCDC7/DBF4) is prepared internally. Cdc7 assays are conducted as follows with final concentrations as listed. […] Reactions are quenched after 1 hr by the addition of 90 μL stop buffer (50 mM EDTA, 2M NaCl). […] (Ki) for exemplary compounds.

T1 sequence (O00311 whole entry): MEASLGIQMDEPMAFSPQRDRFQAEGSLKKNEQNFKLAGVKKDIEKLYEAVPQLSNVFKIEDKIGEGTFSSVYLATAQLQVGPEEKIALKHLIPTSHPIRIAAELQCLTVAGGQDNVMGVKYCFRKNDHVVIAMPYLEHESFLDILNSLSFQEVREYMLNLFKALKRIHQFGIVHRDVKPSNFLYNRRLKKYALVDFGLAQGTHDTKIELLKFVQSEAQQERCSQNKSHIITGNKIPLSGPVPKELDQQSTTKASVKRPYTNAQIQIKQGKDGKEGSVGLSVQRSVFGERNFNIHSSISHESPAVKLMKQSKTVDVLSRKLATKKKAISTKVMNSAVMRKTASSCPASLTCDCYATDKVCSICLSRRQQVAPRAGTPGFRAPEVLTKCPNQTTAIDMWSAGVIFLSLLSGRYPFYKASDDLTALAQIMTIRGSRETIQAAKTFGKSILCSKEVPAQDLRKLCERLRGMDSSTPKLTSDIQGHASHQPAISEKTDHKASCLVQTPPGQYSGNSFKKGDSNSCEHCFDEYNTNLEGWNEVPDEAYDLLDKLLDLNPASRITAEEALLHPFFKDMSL
T1 sequence (Q9UBU7 whole entry partner): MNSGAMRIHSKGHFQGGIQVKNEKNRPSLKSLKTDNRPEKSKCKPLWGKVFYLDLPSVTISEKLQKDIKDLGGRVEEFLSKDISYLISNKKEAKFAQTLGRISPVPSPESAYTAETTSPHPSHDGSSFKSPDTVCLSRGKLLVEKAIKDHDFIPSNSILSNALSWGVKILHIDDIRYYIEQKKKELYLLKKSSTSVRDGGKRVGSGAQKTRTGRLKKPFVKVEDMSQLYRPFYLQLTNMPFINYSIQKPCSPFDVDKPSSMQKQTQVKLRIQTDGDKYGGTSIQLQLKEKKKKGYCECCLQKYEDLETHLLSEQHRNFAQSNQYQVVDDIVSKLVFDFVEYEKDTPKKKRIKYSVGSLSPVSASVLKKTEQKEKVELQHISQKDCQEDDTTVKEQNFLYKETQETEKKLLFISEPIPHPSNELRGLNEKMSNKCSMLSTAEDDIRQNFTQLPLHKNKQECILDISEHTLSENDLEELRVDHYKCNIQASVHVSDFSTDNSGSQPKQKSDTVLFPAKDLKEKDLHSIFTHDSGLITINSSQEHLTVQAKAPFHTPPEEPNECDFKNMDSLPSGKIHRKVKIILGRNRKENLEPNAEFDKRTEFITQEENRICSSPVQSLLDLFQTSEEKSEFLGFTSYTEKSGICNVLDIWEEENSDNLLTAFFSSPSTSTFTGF

Ki [nM]	SMILES
10 to 100	CC(=O)c1ccc(S(=O)(=O)NCC(C)(C)CNc2cc(-c3c[nH]c4ncccc34)cc(Cl)n2)cc1 [Example 304, 4-acetyl-N-(3-{[6-chloro-4-(1H-pyrrolo[2,3-b]pyridin-3-yl)pyridin-2-yl]amino}-2,2-dimethylpropyl)benzenesulfonamide]
10 to 100	Cc1noc(C)c1S(=O)(=O)NCC(C)(C)CNc1cc(-c2c[nH]c3ncccc23)cc(Cl)n1 [Example 305, N-(3-{[6-chloro-4-(1H-pyrrolo[2,3-b]pyridin-3-yl)pyridin-2-yl]amino}-2,2-dimethylpropyl)-3,5-dimethyl-1,2-oxazole-4-sulfonamide]
10 to 100	CC(C)(CNc1cc(-c2c[nH]c3ncccc23)cc(Cl)n1)CNS(=O)(=O)c1cccs1 [Example 306, N-(3-{[6-chloro-4-(1H-pyrrolo[2,3-b]pyridin-3-yl)pyridin-2-yl]amino}-2,2-dimethylpropyl)thiophene-2-sulfonamide]
< 10	Cc1noc(C)c1S(=O)(=O)NC1CCCC(Nc2cc(-c3c[nH]c4ncccc34)cc(Cl)n2)C1 (stereo not shown) [Example 307, N-(3-{[6-chloro-4-(1H-pyrrolo[2,3-b]pyridin-3-yl)pyridin-2-yl]amino}cyclohexyl)-3,5-dimethyl-1,2-oxazole-4-sulfonamide]
< 10	CCCNC(=O)NC1CCCC(Nc2cc(-c3c[nH]c4ncccc34)cc(Cl)n2)C1 (stereo not shown) [Example 308, 1-(3-{[6-chloro-4-(1H-pyrrolo[2,3-b]pyridin-3-yl)pyridin-2-yl]amino}cyclohexyl)-3-propylurea]
< 10	CCCS(=O)(=O)NCC(C)(C)CNc1cc(-c2c[nH]c3ncccc23)cc(Cl)n1 [Example 309, N-(3-{[6-chloro-4-(1H-pyrrolo[2,3-b]pyridin-3-yl)pyridin-2-yl]amino}-2,2-dimethylpropyl)propane-1-sulfonamide]
< 10	CC(=O)Nc1cc(-c2c[nH]c3ncccc23)cc(Cl)n1 [Example 310, N-[6-chloro-4-(1H-pyrrolo[2,3-b]pyridin-3-yl)pyridin-2-yl]acetamide]
< 10	CC(C)S(=O)(=O)N[C@H]1CC[C@H](Nc2cc(-c3c[nH]c4ncccc34)cc(Cl)n2)CC1 [Example 311, N-(trans-4-{[6-chloro-4-(1H-pyrrolo[2,3-b]pyridin-3-yl)pyridin-2-yl]amino}cyclohexyl)propane-2-sulfonamide]
< 10	CCS(=O)(=O)N[C@H]1CC[C@H](Nc2cc(-c3c[nH]c4ncccc34)cc(Cl)n2)CC1 [Example 312, N-(trans-4-{[6-chloro-4-(1H-pyrrolo[2,3-b]pyridin-3-yl)pyridin-2-yl]amino}cyclohexyl)ethanesulfonamide]
< 10	CCCCS(=O)(=O)NCCNc1cc(-c2c[nH]c3ncccc23)cc(Cl)n1 [Example 313, N-(2-{[6-chloro-4-(1H-pyrrolo[2,3-b]pyridin-3-yl)pyridin-2-yl]amino}ethyl)butane-1-sulfonamide]
< 10	O=S(=O)(NCCNc1cc(-c2c[nH]c3ncccc23)cc(Cl)n1)c1cccs1 [Example 314, N-(2-{[6-chloro-4-(1H-pyrrolo[2,3-b]pyridin-3-yl)pyridin-2-yl]amino}ethyl)thiophene-2-sulfonamide]
< 10	CN1CCCC(Nc2cc(-c3c[nH]c4ncccc34)cc(Cl)n2)C1 (stereo not shown) [Example 315, 6-chloro-N-(1-methylpiperidin-3-yl)-4-(1H-pyrrolo[2,3-b]pyridin-3-yl)pyridin-2-amine]
< 10	O=C(C1CC1)N1CCCC(CNc2cc(-c3c[nH]c4ncccc34)cc(Cl)n2)C1 (stereo not shown) [Example 316, [3-({[6-chloro-4-(1H-pynolo[2,3-b]pyridin-3-yl)pyridin-2-yl]amino}methyl)piperidin-1-yl](cyclopropyl)methanone]
10 to 100	O=C(C1CC1)N1CCCC(CN(C(=O)C2CC2)c2cc(-c3c[nH]c4ncccc34)cc(Cl)n2)C1 (stereo not shown) [Example 317, N-[6-chloro-4-(1H-pyrrolo[2,3-b]pyridin-3-yl)pyridin-2-yl]-N-{[1-(cyclopropylcarbonyl)piperidin-3-yl]methyl}cyclopropanecarboxamide]
10 to 100	Clc1cc(-c2c[nH]c3ncccc23)cc(NCC2CCCN(CC3CC3)C2)n1 (stereo not shown) [Example 318, 6-chloro-N-{[1-(cyclopropylmethyl)piperidin-3-yl]methyl}-4-(1H-pyrrolo[2,3-b]pyridin-3-yl)pyridin-2-amine]
< 10	Clc1cc(-c2c[nH]c3ncccc23)cc(NC2CCCN(CC3CC3)C2)n1 (stereo not shown) [Example 319, 6-chloro-N-[1-(cyclopropylmethyl)piperidin-3-yl]-4-(1H-pyrrolo[2,3-b]pyridin-3-yl)pyridin-2-amine]
10 to 100	O=C(Cc1cc2ccccc2[nH]1)Nc1cc(-c2c[nH]c3ncccc23)cc(Cl)n1 [Example 320, N-[6-chloro-4-(1H-pyrrolo[2,3-b]pyridin-3-yl)pyridin-2-yl]-2-(1H-indol-2-yl)acetamide]
< 10	Clc1cc(-c2c[nH]c3ncccc23)cc(N[C@H]2CC[C@H](NC3CCCC3)CC2)n1 [Example 321, trans-N-[6-chloro-4-(1H-pyrrolo[2,3-b]pyridin-3-yl)pyridin-2-yl]-N′-cyclopentylcyclohexane-1,4-diamine]
< 10	CC(C)CN[C@H]1CC[C@H](Nc2cc(-c3c[nH]c4ncccc34)cc(Cl)n2)CC1 [Example 322, trans-N-[6-chloro-4-(1H-pyrrolo[2,3-b]pyridin-3-yl)pyridin-2-yl]-N′-(2-methylpropyl)cyclohexane-1,4-diamine]
< 10	Clc1cc(-c2c[nH]c3ncccc23)cc(NC2CCCC(N3CCCC3)C2)n1 (stereo not shown) [Example 323, 6-chloro-N-[3-(pyrrolidin-1-yl)cyclohexyl]-4-(1H-pyrrolo[2,3-b]pyridin-3-yl)pyridin-2-amine]
< 10	Clc1cc(-c2c[nH]c3ncccc23)cc(NC2CCCC(N3CCCCC3)C2)n1 (stereo not shown) [Example 324, 6-chloro-N-[3-(piperidin-1-yl)cyclohexyl]-4-(1H-pyrrolo[2,3-b]pyridin-3-yl)pyridin-2-amine]
< 10	CNCC(=O)N[C@H]1CC[C@H](Nc2cc(-c3c[nH]c4ncccc34)cc(Cl)n2)CC1 [Example 325, N-(trans-4-{[6-chloro-4-(1H-pyrrolo[2,3-b]pyridin-3-yl)pyridin-2-yl]amino}cyclohexyl)-N~2~-methylglycinamide]
< 10	CN[C@@H](C)C(=O)NC1CCCC(Nc2cc(-c3c[nH]c4ncccc34)cc(Cl)n2)C1 (stereo partly shown) [Example 327, N-(3-{[6-chloro-4-(1H-pyrrolo[2,3-b]pyridin-3-yl)pyridin-2-yl]amino}cyclohexyl)-N~2~-methylalaninamide]
< 10	CN[C@@H](C(=O)N[C@H]1CCC[C@H](Nc2cc(-c3c[nH]c4ncccc34)cc(Cl)n2)C1)c1ccccc1 [Example 328, (2R)—N-[(1S,3S)-3-{[6-chloro-4-(1H-pyrrolo[2,3-b]pyridin-3-yl)pyridin-2-yl]amino}cyclohexyl]-2-(methylamino)-2-phenylethanamide]
< 10	CN[C@@H](C(=O)N[C@@H]1CCC[C@@H](Nc2cc(-c3c[nH]c4ncccc34)cc(Cl)n2)C1)c1ccccc1 [Example 329, (2R)—N-[(1R,3R)-3-{[6-chloro-4-(1H-pyrrolo[2,3-b]pyridin-3-yl)pyridin-2-yl]amino}cyclohexyl]-2-(methylamino)-2-phenylethanamide]
